Results on 20 molecules are retold here after PubChem BioAssay AID290 (DTP/NCI, 2004).

Values joined by “and” are separate entries in the source; they are usually repeats but may differ in a detail not shown here. Equal values may be shown once. Results filed as inconclusive are left out.

The assay deals with mice, P1798 lymphosarcoma sc, survival or tumor weight T/C. Kind of assay: NCI In Vivo Anticancer Drug Screen. Data for tumor model P1798 Lymphosarcoma (subcutaneous) in unknown mice. As to conditions: endpoint: mean tumor weight, higher = larger tumour. On the procedure:
The antitumor activity of compounds was measured in mice bearing transplantable tumors. Survival or tumor size were measured and the results are expressed as the measurement made in the treated group (T) divided by the measurement made in the vehicle treated control group (C). The tumor model used in this assay is P1798 Lymphosarcoma (subcutaneous) in unknown mice

Setting [1] is: dose: 62.5 mg/kg/injection, schedule: Q01DX010 (ip), vehicle: carboxymethylcellulose (CMC).
The mark [2] stands for this setting: dose: 125.0 mg/kg/injection, schedule: Q01DX010 (ip), vehicle: carboxymethylcellulose (CMC).
The mark [3] stands for this setting: dose: 25.0 mg/kg/injection, schedule: Q01DX010 (ip), vehicle: carboxymethylcellulose (CMC).
[4] abbreviates: dose: 50.0 mg/kg/injection, schedule: Q01DX010 (ip), vehicle: carboxymethylcellulose (CMC).
[5] abbreviates: dose: 100.0 mg/kg/injection, schedule: Q01DX010 (ip), vehicle: carboxymethylcellulose (CMC).
Where [6] appears, read: dose: 250.0 mg/kg/injection, schedule: Q01DX010 (ip), vehicle: saline.

For `C[C@]12CCC(=O)C=C1CC[C@@H]1[C@@H]2C(=O)C[C@@]2(C)[C@H]1CC[C@]2(O)C(=O)CO`, the T/C is, setting by setting: (dose: 100.0 mg/kg/injection, schedule: Q01DX010 (sc), vehicle: steriod suspending solution) 7 % of control; (dose: 200.0 mg/kg/injection, schedule: Q01DX010 (sc), vehicle: steriod suspending solution) 1 % of control.

With `Clc1ncnc2nc[nH]c12`, the T/C (dose: 31.25 mg/kg/injection, schedule: Q01DX010 (ip), vehicle: carboxymethylcellulose (CMC)) is 106 % of control; the T/C under setting [1] was 95 % of control; the T/C under setting [2] was 92 % of control; the T/C (dose: 250.0 mg/kg/injection, schedule: Q01DX010 (ip), vehicle: carboxymethylcellulose (CMC)) is 79 % of control.

Regarding `CS(=O)(=O)OCCCl`, the T/C is 89 % of control under setting [3] and 88 % of control under setting [4].

With `Nc1nc(F)nc2c1ncn2C1OC(CO)C(O)C1O` (stereo not drawn), the T/C by setting is: (dose: 0.75 mg/kg/injection, schedule: Q01DX011 (ip), vehicle: saline) 73 % of control; (dose: 1.5 mg/kg/injection, schedule: Q01DX011 (ip), vehicle: saline) 30 % of control.

On to `CCn1cnc2c(=S)nc[nH]c21`, for which the T/C is 117 % of control (dose: 7.75 mg/kg/injection, schedule: Q01DX010 (ip), vehicle: carboxymethylcellulose (CMC)); 95 % of control (dose: 15.5 mg/kg/injection, schedule: Q01DX010 (ip), vehicle: carboxymethylcellulose (CMC)); 82 % of control (dose: 31.0 mg/kg/injection, schedule: Q01DX010 (ip), vehicle: carboxymethylcellulose (CMC)).

In the case of `CCCCNc1ncnc2c1cnn2C`, the T/C (dose: 6.25 mg/kg/injection, schedule: Q01DX010 (ip), vehicle: carboxymethylcellulose (CMC)) is 63 % of control; the T/C (dose: 12.5 mg/kg/injection, schedule: Q01DX010 (ip), vehicle: carboxymethylcellulose (CMC)) was 97 % of control; the T/C under setting [3] is 57 % of control.

For the molecule `CN(C)/N=N/c1nc[nH]c1C(N)=O`, the T/C (dose: 75.0 mg/kg/injection, schedule: Q01DX015 (ip), vehicle: carboxymethylcellulose (CMC)) is 73 % of control; the T/C (dose: 100.0 mg/kg/injection, schedule: Q01DX015 (ip), vehicle: carboxymethylcellulose (CMC)) is 69 % of control; the T/C (dose: 125.0 mg/kg/injection, schedule: Q01DX015 (ip), vehicle: carboxymethylcellulose (CMC)) is 57 % of control; the T/C (dose: 150.0 mg/kg/injection, schedule: Q01DX015 (ip), vehicle: carboxymethylcellulose (CMC)) is 52 % of control.

Take `CC(C)(c1ccccc1)c1ccc(O)cc1`: the T/C is 91 % of control under setting [4]; 109 % of control under setting [5]; 108 % of control (dose: 200.0 mg/kg/injection, schedule: Q01DX010 (ip), vehicle: carboxymethylcellulose (CMC)).

In the case of `CO[C@H](C(=O)[C@@H](O)[C@@H](C)O)[C@@H]1Cc2cc3cc(OC4CC(OC5CC(O)C(O)C(C)O5)C(O)C(C)O4)c(C)c(O)c3c(O)c2C(=O)[C@H]1OC1CC(OC2CC(OC3CC(C)(O)C(O)C(C)O3)C(O)C(C)O2)C(O)C(C)O1` (stereo partly drawn), the T/C (dose: 0.06 mg/kg/injection, schedule: Q01DX011 (ip), vehicle: saline) is 89 % of control and 102 % of control.

For the molecule `CC[C@]1(O)C[C@H]2CN(CCc3c([nH]c4ccccc34)[C@@](C(=O)OC)(c3cc4c(cc3OC)N(C=O)[C@H]3[C@@](O)(C(=O)OC)[C@H](OC(C)=O)[C@]5(CC)C=CCN6CC[C@]43[C@@H]65)C2)C1`, the T/C is 105 % of control (dose: 0.01 mg/kg/injection, schedule: Q01DX010 (ip), vehicle: water); 105 % of control (dose: 0.03 mg/kg/injection, schedule: Q01DX010 (ip), vehicle: water); 120 % of control (dose: 0.1 mg/kg/injection, schedule: Q01DX001 (ip), vehicle: saline); 45 % of control (dose: 0.3 mg/kg/injection, schedule: Q01DX001 (ip), vehicle: saline); 40 % of control (dose: 0.5 mg/kg/injection, schedule: Q01DX001 (ip), vehicle: saline); 10 % of control (dose: 0.68 mg/kg/injection, schedule: Q01DX001 (ip), vehicle: saline). In addition, the T/C is, setting by setting: (dose: 0.7 mg/kg/injection, schedule: Q01DX001 (ip), vehicle: saline) 36 % of control; (dose: 1.35 mg/kg/injection, schedule: Q01DX001 (ip), vehicle: saline) 3 % of control; (dose: 125.0 micrograms/kg/injection, schedule: Q01DX010 (ip), vehicle: water) 16 % of control.

As for `c1ccc(COCC[P+](c2ccccc2)(c2ccccc2)c2ccccc2)cc1`, the T/C runs as follows: (dose: 5.0 mg/kg/injection, schedule: Q01DX010 (ip), vehicle: saline) 53 % of control; (dose: 8.0 mg/kg/injection, schedule: Q01DX010 (ip), vehicle: saline) 49 % of control.

As for `CSc1ncnc2nc[nH]c12`, the T/C under setting [3] is 45 % of control, the T/C under setting [4] is 61 % of control and the T/C under setting [5] is 56 % of control.

On to `CC(CCC(C)OS(C)(=O)=O)OS(C)(=O)=O` (stereo not drawn), for which the T/C is, setting by setting: (dose: 5.0 mg/kg/injection, schedule: Q01DX010 (ip), vehicle: carboxymethylcellulose (CMC)) 72 % of control; (dose: 10.0 mg/kg/injection, schedule: Q01DX010 (ip), vehicle: carboxymethylcellulose (CMC)) 93 % of control; (dose: 20.0 mg/kg/injection, schedule: Q01DX010 (ip), vehicle: carboxymethylcellulose (CMC)) 102 % of control; (dose: 40.0 mg/kg/injection, schedule: Q01DX010 (ip), vehicle: carboxymethylcellulose (CMC)) 83 % of control.

`O=C(Nc1ccc(C2=NCCCN2)cc1)c1ccc(NC(=O)c2ccc(C3=NCCCN3)cc2)cc1`: the T/C is 73 % of control (dose: 2.0 mg/kg/injection, schedule: Q01DX010 (ip), vehicle: carboxymethylcellulose (CMC)); 50 % of control (dose: 4.0 mg/kg/injection, schedule: Q01DX010 (ip), vehicle: carboxymethylcellulose (CMC)); 15 % of control (dose: 8.0 mg/kg/injection, schedule: Q01DX010 (ip), vehicle: carboxymethylcellulose (CMC)).

Regarding `CCOC(N)=O`, the T/C under setting [6] was 70 % of control and 76 % of control.

Take `CN(C)CC(=O)c1ccc(O)c(O)c1`: the T/C under setting [6] was 154 % of control.

On to `COC1=C(N)C(=O)c2nc(-c3nc(C(=O)O)c(C)c(-c4ccc(OC)c(OC)c4O)c3N)ccc2C1=O`, for which the T/C is 65 % of control (dose: 0.05 mg/kg/injection, schedule: Q01DX010 (ip), vehicle: other) and 39 % of control (dose: 0.1 mg/kg/injection, schedule: Q01DX010 (ip), vehicle: other).

For `COc1cc2c(c(OC)c1OC)-c1ccc(OC)c(=O)cc1[C@@H](NC(C)=O)CC2`, the T/C runs as follows: (dose: 0.12 mg/kg/injection, schedule: Q01DX010 (ip), vehicle: saline) 50 % of control; (dose: 0.25 mg/kg/injection, schedule: Q01DX010 (ip), vehicle: saline) 59 % of control; (dose: 0.5 mg/kg/injection, schedule: Q01DX010 (ip), vehicle: saline) 5 % of control.

In the case of `CN(/N=N/N(C)c1ccccc1)c1ccccc1`, the T/C was 59 % of control (dose: 15.6 mg/kg/injection, schedule: Q01DX010 (ip), vehicle: carboxymethylcellulose (CMC)); 44 % of control (dose: 31.3 mg/kg/injection, schedule: Q01DX010 (ip), vehicle: carboxymethylcellulose (CMC)); 39 % of control under setting [1]; 58 % of control under setting [2].

For `O=c1[nH]c(=O)n(C2CC(O)C(CO)O2)cc1F` (stereo not drawn), the T/C was 42 % of control under setting [3] and 30 % of control under setting [4].
